# According to patent US20260014227A1, “DESLORELIN USE IN CHEMICAL CASTRATION OF A NON-HUMAN MAMMAL RELATED TO PK/PD INTERACTION” (priority 2022, published 2026):
# Several values for one entry are separate records, joined by “and”; a condition that tells them apart may be missing. Equal entries are not always repeated.
# Legend:
# cat = experiment: Safety study in cat, high dose; type: in vivo
# [1] = dog, in vivo
# intact male cats [2] = experiment: Testicular size by calipers (Example 7); type: in vivo, cat; conditions: treated cats
# intact male cats [3] = experiment: PK/PD preclinical study in 15-week-old male cats: penile spines, behaviour, puberty, reversal (Example 13); type: in vivo, cat; conditions: treated at 15 weeks of age
# Excerpt: On D14, the three spare cats were removed from the study. Five+3 female cats (Group 3), pubescent at study start, were included in the study solely to assess the reproductive behavior of male cats. They were not treated with the implant. • Duration: 18 Study Months post-injection (PI) (D502/Week 72, i.e., 16.5 calendar months)
# in vivo [4] = conditions: male, dog, 4.7 mg
# prepubertal female dogs = experiment: Delay of puberty onset in prepubertal female dogs (Example 14); type: in vivo, dog
# Excerpt: The aim of this study was to evaluate the delay of puberty onset in prepubertal female dogs. As known the puberty begins with the setting up of several parameters: • Increasing number of receptors in central nervous system (CNS) and gonads • Desensitization of hypothalamus/pituitary towards estrogens • Ripening of the gonads and the secondary sexual organs • Follicle ripening, spermatogenesis
# male cats = experiment: Cat field studies 1 and 2: suppression of fertility, reversibility, behaviour, safety (Example 12); type: in vivo
# Excerpt: The efficacy and safety of the re-implantation was followed-up for these supplementary 12 months, i.e. for a total of 24 months.
# The observation schedule was as follows: • Study 1: V1: Day −14 to −7; V2: Day 0; V3: 1.5 months±3 days; V4: 3 months±5 days, V5: 6 months±5 days, V6: 9 months±5 days; V7: 12 months #5 days; • Study 2: V8: 12 months±3 days; V9: 13.5 months±3 days; V10: 15 months±5 days; V11: 18 months±5 days; V12: 21 months±5 days; V13: 24 months±5 days.
# Regarding the enrolment criteria, in both studies the criteria were as the following: • Domestic Cats • Age >3 MONTHS old or >15 MONTHS in Study 2 • Intact Indoor males • Client-owned (including shelter cats/rehomed by foster families)
# In these studies the following primary endpoints were measured: • For Study 1: the suppression of fertility (Testosterone≤0.10 ng/ml* from V4 until V7*-3 to 12 months) • Study 2: the suppression of fertility (Testosterone≤0.10 ng/mL*from V8 until V13 (12 to 24 months) and the time to reversion effect. […]
# prepubertal bitches = conditions: cited from earlier work
# testosterone = experiment: Correlation between deslorelin and testosterone concentration (Example 4); type: in vivo, cat; conditions: 16 male cats, 4.7 mg implant; assessed graphically
# Procedure: The serum concentration of testosterone was measured according to the protocol detailed in example 2, point 2.1.
# The plasmatic concentration of deslorelin was measured according to the protocol detailed in example 1, point 1.1.
# male dogs = conditions: cited from earlier work
# in vivo [5] = type: in vivo, dog; conditions: male, dog, in vivo, 4.7 mg
# testosterone, LH and FSH = experiment: in vivo; type: in vivo, dog; conditions: assessed graphically
# [6] = in vivo
# Procedure: Samples were collected from 10 intact male cats treated with Suprelorin® 4.7 implant. Samples (based on a plasma volume of 150 μL, treated with K2-EDTA as anticoagulant) were analyzed by a LC-MS/MS method after a solid extraction phase using μElution Oasis® WCX plates. The compound (13C, 15N)-Leu (7)-deslorelin was used as a standard. The calibration range was 4 pg/mL-2000 pg/mL.
# [7] = design: species or system cat; conditions: in vivo
# Procedure: • study period: D0-560 (18 months)· • n=20 adults, sexually mature intact male cats • blinded, randomized • Suprelorin® group: n=16=>4.7 mg Suprelorin® SC, neck • Control group: n=4=>0.5 ml saline SC, neck
# Blood samples were collected from 16 healthy, intact male cats that had received a deslorelin implant. Samples were analyzed using a validated liquid chromatography coupled to tandem mass spectrometry (LC-MS/MS) method after solid extraction using Oasis® WCX uElution plate. […] Concentrations measured below the lower limit of quantification (LLOQ) of 4 pg/mL were reported as BLQ (Below the Limit of Quantification).
# Non-compartmental pharmacokinetic analysis of individual deslorelin concentrations in feline plasma was performed using Phoenix® software (WinNonlin 8.0, NLME 1.6, Certara L. P., Pharsight, St. Louis, MO, USA) to estimate the pharmacokinetic parameters of deslorelin.
compound,measurement,setting,value
CCNC(=O)[C@@H]1CCCN1C(=O)[C@H](CCCN=C(N)N)NC(=O)[C@H](CC(C)C)NC(=O)[C@@H](Cc1c[nH]c2ccccc12)NC(=O)[C@H](Cc1ccc(O)cc1)NC(=O)[C@H](CO)NC(=O)[C@H](Cc1c[nH]c2ccccc12)NC(=O)[C@H](Cc1cnc[nH]1)NC(=O)[C@@H]1CCC(=O)N1 [deslorelin],Safety findings,cat,neither serious adverse events nor live threatening events
same,Study day until which plasma deslorelin was quantifiable,[1],441
same,Effect on testicular volume,intact male cats [2],induced a decrease in testicular volume
same,Duration of delay of puberty onset,intact male cats [3],at least 1 year
same,level at 10584 h,in vivo [4],2 pg/mL
same,Findings in prepubertal female dogs,prepubertal female dogs; with 1 implant,"no disturbance of body development, the vulva size was normal, but delayed epiphyseal closure"
same,Findings in prepubertal female dogs,prepubertal female dogs; with 3 implants every 4.5 Mo,vulva stayed juvenile and the effect was comparable to prepubertal castration
same,Duration of effective chemical castration,male cats; male cats,at least 12 months
same,Onset of efficacy in behavioral reduction,male cats; sexual behaviors,7 to 31 days
same,Delay of puberty,prepubertal bitches; prepubertal bitch,at least 4.5 months
same,"Progesterone (P4), mean",prepubertal bitches; prepubertal bitches,0.6 ± 0.2 ng/mL
same,Deslorelin concentration below which testosterone started to increase,testosterone,< 12 pg/mL
same,Presence of deslorelin,"male dogs; dog, in vivo",2.5 months
same,Duration of observed effect,male dogs; dogs,at least 6 months
same,Persistent pharmacological effect by plasma testosterone,male dogs; following administration,at least 12 months
same,level at 5376 h,in vivo [5],12 ± 10.4 pg/mL
same,Deslorelin concentration below which testosterone/LH/FSH concentrations started to increase,"testosterone, LH and FSH",12 pg/mL and < 12 pg/mL
same,Time deslorelin remains in the blood,[6],up to 497 days
same,Time deslorelin remains present in the blood,[7],up to 560 days
